Reference: PubChem BioAssay (NCI)
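Exposure lasted 48 hours, with cells grown in 96-well plates and compounds tested at five concentrations. At the GI50, growth is halved. TGI: total growth inhibition.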

Experiments:
Test in all cases: NCI tumour cell line growth inhibition, 48 h
786-0 renal = test system: 786-0 renal
EKVX NSCLC = test system: EKVX NSCLC
HCC-2998 colon = test system: HCC-2998 colon
HOP-62 NSCLC = test system: HOP-62 NSCLC
HT29 colon = test system: HT29 colon
IGROV1 ovarian = test system: IGROV1 ovarian
MOLT-4 leukemia = test system: MOLT-4 leukemia
SW-620 colon = test system: SW-620 colon
TK-10 renal = test system: TK-10 renal
UACC-257 melanoma = test system: UACC-257 melanoma

| SMILES | GI50 (786-0 renal) | TGI (786-0 renal) | GI50 (EKVX NSCLC) | TGI (EKVX NSCLC) | GI50 (HCC-2998 colon) | TGI (HCC-2998 colon) | GI50 (HOP-62 NSCLC) | TGI (HOP-62 NSCLC) | GI50 (HT29 colon) | TGI (HT29 colon) | GI50 (IGROV1 ovarian) | TGI (IGROV1 ovarian) | GI50 (MOLT-4 leukemia) | TGI (MOLT-4 leukemia) | GI50 (SW-620 colon) | TGI (SW-620 colon) | GI50 (TK-10 renal) | TGI (TK-10 renal) | GI50 (UACC-257 melanoma) | TGI (UACC-257 melanoma) |
| --- | --- | --- | --- | --- | --- | --- | --- | --- | --- | --- | --- | --- | --- | --- | --- | --- | --- | --- | --- | --- |
| COc1ccc2c(c1)C(=O)/C(=C/c1cccc(OCC(=O)c3ccccc3)c1)O2 | 4.59 µM | 17.5 µM | 9.88 µM | 29.1 µM | 1.74 µM | 3.16 µM | 14.5 µM | 28.5 µM | 3.1 µM | 7.56 µM | 3.66 µM | 13.3 µM | 1.44 µM | 3.52 µM | 1.77 µM | 3.43 µM | 2.45 µM | 5.5 µM | 18.8 µM | 33.5 µM |
| Cc1ccc(S(=O)(=O)OC2CC=CC2)cc1 |  | > 100 µM |  | > 100 µM |  | > 100 µM |  | > 100 µM |  | > 100 µM |  | > 100 µM |  | > 100 µM |  | > 100 µM |  | > 100 µM |  | > 100 µM |
| Cc1cn(-c2cc(NC(=O)c3cccc(C#Cc4cccc5[nH]nc(N)c45)c3)cc(C(F)(F)F)c2)cn1 | 4.72 µM | 20.6 µM | 7.38 µM | > 100 µM | 3.17 µM | > 100 µM | 3.99 µM | 18.3 µM | 2.55 µM | 17.7 µM | 5.29 µM | 83.2 µM | 3.84 µM | > 100 µM | 4.22 µM | > 100 µM | 17.8 µM | 60.4 µM | 6.59 µM | 78.3 µM |
| CC(C)(C)c1cc([N+](=O)[O-])cc([N+](=O)[O-])c1O |  | > 10 µM |  | > 10 µM |  | > 10 µM |  | > 10 µM |  | > 10 µM |  | > 10 µM |  | > 10 µM |  | > 10 µM |  | > 10 µM |  | > 10 µM |
| CCOc1cccc(/C=N/NC(=O)c2cccc(Nc3ccnc(C(F)(F)F)c3)c2)c1O | 1.18 µM | > 20.7 µM | 1.55 µM | > 64.5 µM | 1.45 µM | > 100 µM | 0.682 µM | 15.3 µM | 5.34 µM | > 82.7 µM | 0.852 µM | > 52.6 µM | 0.232 µM | 2.08 µM | 3.04 µM | > 88.7 µM | 1.57 µM | 83.1 µM | 3.09 µM | 24 µM |
| CC(=O)OC1OC([C@H]2c3cccc(O)c3C(=O)c3c(O)cc(C)cc32)C(O)C(O)C1O (some centres not stated) | 0.0334 µM | 1.99 µM | 0.198 µM | 3.04 µM | < 0.01 µM |  | 0.065 µM | 1.93 µM | 0.116 µM | > 100 µM | 0.224 µM | > 100 µM | 1.03 µM |  | 0.112 µM | 14.1 µM | 0.254 µM | 1.75 µM | < 0.0139 µM |  |
| Nc1ncnc2c1ncn2C1C=C(CO)C(O)C1O (configuration not stated) |  | > 100 µM |  | > 100 µM |  | > 77.3 µM |  | > 100 µM |  | > 100 µM |  | > 54.3 µM |  | 30.9 µM |  | > 86.8 µM |  | > 84.9 µM |  | > 100 µM |
| Cc1cc(N(CC(C)Br)CC(C)Br)ccc1N=Nc1ccccc1C(=O)O (configuration not stated) |  | 16.4 µM |  | 21.8 µM |  | 6.19 µM |  | 22.8 µM |  | 14.2 µM |  | 24.2 µM |  | > 100 µM |  | > 84.1 µM |  | 24.4 µM |  | 19 µM |
| COc1ccc(C(C#N)NC23CC4CC(CC(C4)C2)C3)cc1 (configuration not stated) |  | > 100 µM |  | > 100 µM |  | > 100 µM |  | > 100 µM |  | > 100 µM |  | > 100 µM |  | > 100 µM |  | > 100 µM |  | > 100 µM |  | > 100 µM |
| O=C(/C=C/c1ccccc1)Nc1ncc(Cc2ccccc2Cl)s1 | 0.774 µM | > 100 µM | 0.571 µM | > 100 µM | 0.361 µM | > 100 µM | 0.505 µM | > 100 µM | 0.331 µM | > 100 µM | 0.477 µM | > 100 µM | 0.459 µM | > 100 µM | 0.413 µM | > 100 µM | > 100 µM | > 100 µM | > 100 µM | > 100 µM |
| CS(=O)(=O)CCNCc1coc(-c2ccc3ncnc(Nc4ccc(OCc5ccccc5)cc4)c3c2)c1 | 4.16 µM | 9.12 µM | 1.25 µM | > 25 µM | 4.16 µM | 7.91 µM | 5.03 µM | 11.1 µM | 3.4 µM | 7.77 µM | 3.7 µM | > 20.7 µM | 5.2 µM | 16.3 µM | 4.34 µM | 8.34 µM | 1.95 µM | 12.2 µM | 3.67 µM | 7.39 µM |
| Oc1ccc2ccccc2c1N=Nc1cccc2ccccc12 |  | > 100 µM |  | > 100 µM |  | > 100 µM |  | > 100 µM |  | > 100 µM |  | > 100 µM |  | > 100 µM |  | > 100 µM |  | > 100 µM |  | > 100 µM |
| CC/C=C\C[C@H]1CC=C2C(=O)C=C[C@@H]2CC=CCCCC(=O)O[C@@H](CCCCC)CC=C2C(=O)C=C[C@@H]2CC=CCCCC(=O)O[C@@H](CCCCC)CC=C2C(=O)C=C[C@@H]2CC=CCCCC(=O)O[C@@H](CCCCC)CC=C2C(=O)C=C[C@@H]2CC=CCCCC(=O)O1 | 2.29 µM | 6.51 µM | 2.41 µM | > 7.9 µM | 1.86 µM | 4.07 µM | 1.71 µM | 3.86 µM | 2.86 µM | 6.93 µM | 2.32 µM | 7.81 µM | 2.39 µM | > 7.9 µM | 2.54 µM | > 7.9 µM | 3 µM | > 7.9 µM | 2.95 µM | > 7.9 µM |
| Cc1cc(Cl)ccc1OCC(=O)Nc1nc2c(Cl)cccc2s1 | 26.4 µM | > 100 µM | > 100 µM | > 100 µM | > 100 µM | > 100 µM | 19.6 µM | 55.1 µM | > 100 µM | > 100 µM | > 100 µM | > 100 µM | 6.94 µM | 60.3 µM | > 100 µM | > 100 µM | 61.3 µM | > 100 µM | > 100 µM | > 100 µM |
